Data: ChEMBL document CHEMBL1201862, “PubChem BioAssay data set” (2004)
Activity calls are given as the source filed them. For most assays here, no stated cut-off is given here; in the data, actives have a measured IC50 and inactives only a lower limit.

Experiments:
[1] = target: T1, Tyrosine-protein phosphatase non-receptor type 22 (Homo sapiens, UniProt Q9Y2R2); test: LYP (PTPN22) phosphatase inhibitor potency, SAR follow-up, biochemical, pCAP fluorogenic substrate, fluorescence, set 3 (AID 449727); assay type: functional
T1 sequence (Q9Y2R2 whole entry): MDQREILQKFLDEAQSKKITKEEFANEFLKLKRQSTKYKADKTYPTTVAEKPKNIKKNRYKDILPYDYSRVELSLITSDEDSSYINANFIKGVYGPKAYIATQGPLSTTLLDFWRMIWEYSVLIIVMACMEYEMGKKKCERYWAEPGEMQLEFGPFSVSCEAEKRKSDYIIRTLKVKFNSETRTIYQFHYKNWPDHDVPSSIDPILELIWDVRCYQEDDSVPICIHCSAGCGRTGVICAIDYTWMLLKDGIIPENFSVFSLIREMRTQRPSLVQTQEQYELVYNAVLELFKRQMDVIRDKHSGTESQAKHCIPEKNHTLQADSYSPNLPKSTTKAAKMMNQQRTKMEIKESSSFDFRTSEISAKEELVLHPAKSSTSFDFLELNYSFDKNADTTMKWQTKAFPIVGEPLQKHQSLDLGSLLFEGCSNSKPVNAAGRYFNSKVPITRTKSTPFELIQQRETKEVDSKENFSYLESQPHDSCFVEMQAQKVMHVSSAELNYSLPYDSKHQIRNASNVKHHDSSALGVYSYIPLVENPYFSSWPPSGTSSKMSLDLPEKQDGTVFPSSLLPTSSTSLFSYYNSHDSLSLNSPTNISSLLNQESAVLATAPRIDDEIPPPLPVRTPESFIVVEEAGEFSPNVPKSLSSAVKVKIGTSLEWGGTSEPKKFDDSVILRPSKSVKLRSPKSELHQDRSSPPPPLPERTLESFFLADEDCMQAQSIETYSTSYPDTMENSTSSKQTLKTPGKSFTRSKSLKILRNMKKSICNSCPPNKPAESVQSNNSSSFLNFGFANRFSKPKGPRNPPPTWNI

[2] = target: Tyrosine-protein phosphatase non-receptor type 12 (Homo sapiens, UniProt Q05209); test: SAR Selectivity Analysis of small molecule inhibitors of PEST using pCAP in a fluorescence assay. [Related pubchem assays (depositor defined):AID1779, AID1784, AID2135]; assay type: functional
[3] = target: T1, Tyrosine-protein phosphatase non-receptor type 22; test: SAR LYP1 Fluorescent Assay using pCAP substrate for In Vitro dose response studies - Set 2. [Related pubchem assays (depositor defined):AID1779, AID1784, AID2135, AID449727]; assay type: functional
[4] = target: T1, Tyrosine-protein phosphatase non-receptor type 22; test: SAR LYP1 Fluorescent Assay using OMFP substrate for In Vitro dose response studies - Set 2. [Related pubchem assays (depositor defined):AID1779, AID1784, AID2140, AID449726, AID488869]; assay type: functional
[5] = target: T1, Tyrosine-protein phosphatase non-receptor type 22; test: SAR LYP1 Fluorescent Assay using OMFP substrate for In Vitro dose response studies - Set 3. [Related pubchem assays (depositor defined):AID1779, AID1784, AID2140, AID2686]; assay type: functional
[6] = target: T2, Tyrosine-protein phosphatase non-receptor type 7 (Homo sapiens, UniProt P35236); test: HePTP (PTPN7) phosphatase inhibitor potency, SAR follow-up, biochemical, set 2 (AID 449736); assay type: functional
T2 sequence (P35236 whole entry): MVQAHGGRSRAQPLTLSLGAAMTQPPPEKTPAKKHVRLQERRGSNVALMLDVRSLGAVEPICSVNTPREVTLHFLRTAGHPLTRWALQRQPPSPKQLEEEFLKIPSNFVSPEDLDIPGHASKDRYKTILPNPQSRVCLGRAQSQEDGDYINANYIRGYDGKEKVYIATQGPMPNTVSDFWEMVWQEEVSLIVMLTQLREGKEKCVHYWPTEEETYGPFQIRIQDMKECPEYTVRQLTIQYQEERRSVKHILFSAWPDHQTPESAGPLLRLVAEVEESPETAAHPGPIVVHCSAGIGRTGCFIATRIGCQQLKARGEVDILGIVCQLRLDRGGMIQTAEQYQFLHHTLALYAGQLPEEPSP

[7] = target: T3, E3 ubiquitin-protein ligase XIAP (Homo sapiens, UniProt P98170); test: Counter Screen using XIAP-Bir3 for Chemical Antagonists of Bir1/2 domains of IAP-family anti-apoptotic proteins. [Related pubchem assays (depositor defined):AID1018, AID1449, AID1514, AID1638, AID1749, AID1750, AID488957, AID488963]
[8] = target: T3, E3 ubiquitin-protein ligase XIAP; test: XIAP antagonists, biochemical, IAP family, fluorescence polarization (AID 1018); assay type: functional
[9] = HEp-2 cell cytotoxicity, dose response, cytotoxicity control for RSV inhibitor project, HTS (AID 2410); assay type: functional; conditions: human respiratory syncytial virus
[10] = target: Peroxisome proliferator-activated receptor gamma (Homo sapiens, UniProt P37231); test: PPARg partial agonists, dose response, cell-based, luminescence, assay provider (AID 504447); assay type: functional
[11] = system: HEK293; test: SAR analysis of compounds that are cytotoxic to HEK293 - Set 3. [Related pubchem assays (depositor defined):AID1575, AID1578, AID1848, AID1849, AID2001, AID2333, AID2334, AID2335, AID2337, AID2469]; assay type: functional, cell-based; conditions: Homo sapiens
[12] = target: Nucleotide-binding oligomerization domain-containing protein 2 (Homo sapiens, UniProt Q9HC29); test: NOD2 signaling inhibitors, analog potency, SAR follow-up, cell-based, set 3 (AID 2799); assay type: functional
[13] = target: Tumor necrosis factor (Homo sapiens, UniProt P01375); test: TNFa-triggered NF-kB activation inhibitors, SAR follow-up, cell-based, set 3 (AID 2801); assay type: functional
[14] = target: Nucleotide-binding oligomerization domain-containing protein 1 (Homo sapiens, UniProt Q9Y239); test: SAR analysis of compounds that inhibit NOD1 - Set 3. [Related pubchem assays (depositor defined):AID1566, AID1575, AID1578, AID1849, AID1852, AID2333, AID2335, AID2466]; assay type: functional
[15] = target: Kappa-type opioid receptor (Homo sapiens, UniProt P41145); test: SAR analysis of small molecule agonists of the kappa opioid receptor via a luminescent beta-arrestin assay - Set 3. [Related pubchem assays (depositor defined):AID1777, AID1785, AID1786, AID1966, AID2133, AID2136, AID2284, AID2500]; assay type: functional
Kappa-type opioid receptor, sequence (P41145 whole entry): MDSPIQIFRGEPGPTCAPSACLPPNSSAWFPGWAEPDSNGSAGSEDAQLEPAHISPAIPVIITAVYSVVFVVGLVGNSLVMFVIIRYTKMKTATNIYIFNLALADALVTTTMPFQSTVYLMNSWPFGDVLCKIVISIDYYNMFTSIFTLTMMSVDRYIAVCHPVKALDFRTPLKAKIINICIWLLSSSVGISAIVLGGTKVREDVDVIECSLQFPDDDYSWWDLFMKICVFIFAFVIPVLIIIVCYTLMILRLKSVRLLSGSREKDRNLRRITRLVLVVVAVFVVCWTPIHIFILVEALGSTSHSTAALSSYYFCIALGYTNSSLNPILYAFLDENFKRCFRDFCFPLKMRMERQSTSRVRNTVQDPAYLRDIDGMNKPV

T3 sequence (P98170 whole entry): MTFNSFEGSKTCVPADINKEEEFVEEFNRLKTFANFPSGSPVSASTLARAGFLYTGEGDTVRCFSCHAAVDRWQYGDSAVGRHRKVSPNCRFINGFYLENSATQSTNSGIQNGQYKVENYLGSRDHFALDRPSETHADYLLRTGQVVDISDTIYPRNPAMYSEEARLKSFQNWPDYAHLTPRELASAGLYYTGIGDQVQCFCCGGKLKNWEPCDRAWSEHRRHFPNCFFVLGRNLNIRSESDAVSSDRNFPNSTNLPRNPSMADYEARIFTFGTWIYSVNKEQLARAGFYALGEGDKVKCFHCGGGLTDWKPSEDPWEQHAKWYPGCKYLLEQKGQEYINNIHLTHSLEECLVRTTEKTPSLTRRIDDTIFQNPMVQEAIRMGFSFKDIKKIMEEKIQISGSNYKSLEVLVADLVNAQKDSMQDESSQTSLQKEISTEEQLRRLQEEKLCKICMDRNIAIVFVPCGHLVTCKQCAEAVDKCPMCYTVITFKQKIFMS
Nucleotide-binding oligomerization domain-containing protein 1, sequence (Q9Y239 whole entry, the tested form may be a part): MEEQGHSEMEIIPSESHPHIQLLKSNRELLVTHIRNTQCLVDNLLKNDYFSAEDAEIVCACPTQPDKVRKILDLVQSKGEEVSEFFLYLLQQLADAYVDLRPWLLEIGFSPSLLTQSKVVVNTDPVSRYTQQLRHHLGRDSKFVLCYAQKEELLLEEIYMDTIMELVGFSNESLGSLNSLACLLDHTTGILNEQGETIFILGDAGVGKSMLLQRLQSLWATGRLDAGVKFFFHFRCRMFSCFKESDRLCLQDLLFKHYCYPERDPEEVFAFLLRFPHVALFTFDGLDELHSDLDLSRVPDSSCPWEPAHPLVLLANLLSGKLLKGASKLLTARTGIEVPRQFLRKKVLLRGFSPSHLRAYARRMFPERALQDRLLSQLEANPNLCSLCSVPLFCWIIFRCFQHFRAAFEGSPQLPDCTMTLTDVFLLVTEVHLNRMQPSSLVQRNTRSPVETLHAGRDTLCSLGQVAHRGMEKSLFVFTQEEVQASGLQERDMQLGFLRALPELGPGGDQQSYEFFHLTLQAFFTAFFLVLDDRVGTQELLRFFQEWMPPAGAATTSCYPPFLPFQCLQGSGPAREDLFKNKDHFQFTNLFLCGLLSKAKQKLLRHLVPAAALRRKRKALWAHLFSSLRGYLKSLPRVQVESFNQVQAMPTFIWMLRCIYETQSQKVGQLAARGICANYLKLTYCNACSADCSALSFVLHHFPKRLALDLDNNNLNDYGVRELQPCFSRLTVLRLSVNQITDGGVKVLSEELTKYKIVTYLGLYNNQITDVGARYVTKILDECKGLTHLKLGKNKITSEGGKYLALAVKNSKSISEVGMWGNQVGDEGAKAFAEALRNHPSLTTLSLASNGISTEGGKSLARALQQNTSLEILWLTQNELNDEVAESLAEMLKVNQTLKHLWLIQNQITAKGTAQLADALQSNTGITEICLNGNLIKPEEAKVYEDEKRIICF
Nucleotide-binding oligomerization domain-containing protein 2, sequence (Q9HC29 whole entry, the tested form may be a part): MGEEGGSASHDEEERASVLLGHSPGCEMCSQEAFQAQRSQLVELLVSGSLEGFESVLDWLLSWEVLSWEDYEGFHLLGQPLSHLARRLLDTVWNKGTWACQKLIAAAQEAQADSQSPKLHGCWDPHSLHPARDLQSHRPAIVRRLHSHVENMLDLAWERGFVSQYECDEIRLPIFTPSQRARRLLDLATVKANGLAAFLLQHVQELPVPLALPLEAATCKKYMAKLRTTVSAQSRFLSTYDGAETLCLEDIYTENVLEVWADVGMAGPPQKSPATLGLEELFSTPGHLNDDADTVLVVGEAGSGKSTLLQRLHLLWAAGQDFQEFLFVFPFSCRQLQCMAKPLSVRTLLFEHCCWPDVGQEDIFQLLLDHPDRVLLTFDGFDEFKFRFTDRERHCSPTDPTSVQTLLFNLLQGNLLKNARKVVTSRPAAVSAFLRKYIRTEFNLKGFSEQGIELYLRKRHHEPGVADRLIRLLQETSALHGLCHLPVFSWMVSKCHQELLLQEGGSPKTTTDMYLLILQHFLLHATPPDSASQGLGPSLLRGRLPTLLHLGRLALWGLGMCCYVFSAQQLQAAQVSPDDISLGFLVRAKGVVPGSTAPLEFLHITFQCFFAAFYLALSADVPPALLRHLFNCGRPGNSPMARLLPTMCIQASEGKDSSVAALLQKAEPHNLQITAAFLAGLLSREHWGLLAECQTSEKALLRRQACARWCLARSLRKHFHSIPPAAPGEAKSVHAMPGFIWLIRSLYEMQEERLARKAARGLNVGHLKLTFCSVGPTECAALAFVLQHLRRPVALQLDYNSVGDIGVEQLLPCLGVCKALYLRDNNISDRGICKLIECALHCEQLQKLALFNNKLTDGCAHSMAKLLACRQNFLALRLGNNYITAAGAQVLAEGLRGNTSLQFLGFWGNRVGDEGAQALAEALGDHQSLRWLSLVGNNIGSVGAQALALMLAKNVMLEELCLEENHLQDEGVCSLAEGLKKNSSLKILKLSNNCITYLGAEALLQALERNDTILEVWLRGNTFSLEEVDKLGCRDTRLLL
Peroxisome proliferator-activated receptor gamma, sequence (P37231 whole entry): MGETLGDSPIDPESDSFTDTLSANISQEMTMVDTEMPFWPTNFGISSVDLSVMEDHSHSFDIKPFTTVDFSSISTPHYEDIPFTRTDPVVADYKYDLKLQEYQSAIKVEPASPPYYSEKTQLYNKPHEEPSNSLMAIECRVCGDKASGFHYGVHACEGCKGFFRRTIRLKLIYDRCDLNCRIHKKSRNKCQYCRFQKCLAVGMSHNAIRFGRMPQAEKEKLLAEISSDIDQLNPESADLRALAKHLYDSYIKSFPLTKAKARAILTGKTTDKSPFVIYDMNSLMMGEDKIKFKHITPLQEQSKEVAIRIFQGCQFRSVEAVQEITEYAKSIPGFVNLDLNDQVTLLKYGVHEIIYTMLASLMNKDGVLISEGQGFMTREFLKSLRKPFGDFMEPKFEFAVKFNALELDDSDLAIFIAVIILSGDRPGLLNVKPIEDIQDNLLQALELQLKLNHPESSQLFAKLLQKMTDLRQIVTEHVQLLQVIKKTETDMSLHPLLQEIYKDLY
Tumor necrosis factor, sequence (P01375 whole entry, the tested form may be a part): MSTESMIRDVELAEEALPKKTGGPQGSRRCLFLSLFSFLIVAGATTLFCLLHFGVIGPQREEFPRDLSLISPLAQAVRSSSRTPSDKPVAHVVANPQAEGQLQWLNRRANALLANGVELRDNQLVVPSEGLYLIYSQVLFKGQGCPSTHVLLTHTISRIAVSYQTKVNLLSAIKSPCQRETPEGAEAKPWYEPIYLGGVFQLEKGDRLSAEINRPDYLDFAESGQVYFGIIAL
Tyrosine-protein phosphatase non-receptor type 12, sequence (Q05209 whole entry): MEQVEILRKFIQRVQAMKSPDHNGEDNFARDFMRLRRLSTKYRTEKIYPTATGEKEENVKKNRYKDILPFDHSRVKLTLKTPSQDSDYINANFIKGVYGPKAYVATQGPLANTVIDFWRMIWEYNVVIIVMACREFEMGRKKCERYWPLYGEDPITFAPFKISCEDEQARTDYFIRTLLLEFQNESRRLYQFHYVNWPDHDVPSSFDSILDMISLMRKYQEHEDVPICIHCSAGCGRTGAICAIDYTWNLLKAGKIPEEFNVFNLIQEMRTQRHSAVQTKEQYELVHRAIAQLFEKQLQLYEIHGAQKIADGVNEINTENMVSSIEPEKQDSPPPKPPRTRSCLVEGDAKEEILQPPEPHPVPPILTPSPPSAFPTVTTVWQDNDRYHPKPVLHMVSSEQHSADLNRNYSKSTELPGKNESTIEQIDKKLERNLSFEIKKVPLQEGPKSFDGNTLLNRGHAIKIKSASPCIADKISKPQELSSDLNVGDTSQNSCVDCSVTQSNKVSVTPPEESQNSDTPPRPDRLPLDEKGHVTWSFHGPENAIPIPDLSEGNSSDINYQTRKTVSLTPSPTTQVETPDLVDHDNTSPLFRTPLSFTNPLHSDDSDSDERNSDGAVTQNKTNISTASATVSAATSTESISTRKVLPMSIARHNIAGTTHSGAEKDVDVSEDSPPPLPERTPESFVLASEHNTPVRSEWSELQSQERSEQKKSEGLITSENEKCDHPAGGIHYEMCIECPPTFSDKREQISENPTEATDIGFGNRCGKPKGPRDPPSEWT

## O=C(O)COc1ccc(Nc2ccccc2)cc1
[1]
  IC50: > 100 µM (inactive)
[2]
  IC50: 45.1 µM (active)
[3]
  IC50: > 100 µM (inactive)
[4]
  IC50: > 100 µM (inactive)
[5]
  IC50: > 100 µM (inactive)
[6]
  IC50: 0.465 µM (active)

## CC(=O)NCCc1csc(-c2ccccc2)n1
[7]
  IC50: > 100 µM (inactive)
[8]
  IC50: > 100 µM (not active)

## CCOc1ccc(C2c3[nH]c4ccccc4c3CCN2Cc2cccn2-c2ncccn2)cc1 (stereo not given)
[9]
  CC50: 16 µM (active)
[10]
  EC50: 1.6 µM (active)

## Cc1ccccc1S(=O)(=O)n1c(N)nc2ccccc21
[11]
  IC50: > 20 µM (inactive)
[12]
  IC50: > 20 µM (inactive)
[13]
  IC50: > 20 µM (inactive)
[14]
  IC50: > 20 µM (inactive)

## c1ccc(CSc2nnc(-c3ccccn3)n2Cc2cccnc2)cc1
[15]
  EC50: > 20 µM (inactive)
